Laboratory results taken from patent publication US20100311821A1, “Synthetic vector” (priority 2009, published 2010).

Test system: λ-DNA
Test: AFM imaging of DNA complexes
Assay type: physicochemical, lambda phage
Conditions: 50 μg/ml λ-DNA, stoichiometric KWK 64 μM (16 μM PP4, 8 μM PP8), 10 mM sodium cacodylate buffer
Experimental: Preparation of DNA complexes. […] The mixture solution was vortexed for 30 seconds and allowed to equilibrate at room temperature for a few hours. The final DNA concentration was set at 50 μg/ml.
Characterization of DNA complexes structure by Atomic Force Microscopy. DNA complexes were deposited on freshly cleaved mica and then allowed to air dry. Tapping mode AFM imaging was performed on a Digital Instruments Nanoscope […] scanning probe microscope with a multimode head. Silicon probes (VistaProbes T300) with spring constant 40 N/m, resonant frequency, 300 kHz was used to obtain all images.
Long linear lambda phage DNA, λ-DNA, (double-stranded, 48 kbp, MW=3×10^7 Da, contour length—17 μm) in dilute aqueous solution (100 μg ml^−1 DNA in 10 mM pH=6.5 sodium cacodylate buffer containing 0.5 mM EDTA) was used for packaging studies. […] The final DNA concentration was set at 50 μg ml^−1 throughout the studies in this example. The DNA-KWK, DNA-PP4 and DNA-PP8 complex structures were investigated by atomic force microscope (“AFM”) on mica substrates.

## lysine-tryptophan-lysine [KWK]
  DNA compaction (AFM): No DNA compaction
